Data taken from US8268807B2, “Compositions and method for the treatment of multiple myeloma” (SRI International, priority 2010, dated 2012).
Like-named read-outs stand apart in the source and are kept apart here.

Experiments:
[1] = Activity test of salts of Compound (1) (test not specified)
ER-α = biological target: T1, ER-α (Homo sapiens, UniProt P03372); assay: Estrogen receptor binding assay (3H-estradiol displacement), ER-α; conditions: recombinant estrogen receptor, 10 nM 3H-estradiol, 4° C. overnight; read-out: Binding Affinity (IC50) ER-α
T1 sequence (P03372 1-595): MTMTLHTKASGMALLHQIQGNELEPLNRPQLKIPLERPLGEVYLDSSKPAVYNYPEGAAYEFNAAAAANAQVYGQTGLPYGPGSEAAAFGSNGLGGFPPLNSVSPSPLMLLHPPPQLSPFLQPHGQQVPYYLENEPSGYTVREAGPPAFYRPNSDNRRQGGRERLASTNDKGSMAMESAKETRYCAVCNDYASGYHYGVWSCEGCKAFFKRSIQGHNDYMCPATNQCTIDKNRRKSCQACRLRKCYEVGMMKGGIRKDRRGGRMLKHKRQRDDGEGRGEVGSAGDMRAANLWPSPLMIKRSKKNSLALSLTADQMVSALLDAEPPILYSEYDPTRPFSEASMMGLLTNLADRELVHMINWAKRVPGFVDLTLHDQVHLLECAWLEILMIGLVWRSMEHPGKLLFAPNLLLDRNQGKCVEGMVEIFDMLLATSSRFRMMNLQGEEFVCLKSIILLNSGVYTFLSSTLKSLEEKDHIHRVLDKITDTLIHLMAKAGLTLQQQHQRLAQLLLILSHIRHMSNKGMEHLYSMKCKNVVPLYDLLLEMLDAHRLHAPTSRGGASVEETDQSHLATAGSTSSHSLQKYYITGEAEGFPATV

ER-β = ER-β (Homo sapiens, UniProt Q92731); assay: Estrogen receptor binding assay (3H-estradiol displacement), ER-β; conditions: recombinant estrogen receptor, 10 nM 3H-estradiol, 4° C. overnight; read-out: Binding Affinity (IC50) ER-β
[2] = test system: RPMI-8226 multiple myeloma cells; assay: Proliferation of RPMI-8226 multiple myeloma cells; type: cell-based, human; conditions: read-out: IC50 against RPMI-8226 proliferation
Method: Growth inhibition assay was performed to assess the effect of Compound (1) and antiestrogens on growth of RPMI-8226 (multiple myeloma) cells. Cells were seeded in 96-well plates at 2000 cells/well in 200 μL of medium. After 24 hours, test compounds were added to each well and control wells received vehicle only. On Day 3, viable cells were measured with the MTT assay, using an MTT kit.
The effect of Compound (1) and analogs thereof on proliferation of RPMI-8226 multiple myeloma cells was determined by standard methods.

Chain of ER-β (Q92731 whole entry, species assumed): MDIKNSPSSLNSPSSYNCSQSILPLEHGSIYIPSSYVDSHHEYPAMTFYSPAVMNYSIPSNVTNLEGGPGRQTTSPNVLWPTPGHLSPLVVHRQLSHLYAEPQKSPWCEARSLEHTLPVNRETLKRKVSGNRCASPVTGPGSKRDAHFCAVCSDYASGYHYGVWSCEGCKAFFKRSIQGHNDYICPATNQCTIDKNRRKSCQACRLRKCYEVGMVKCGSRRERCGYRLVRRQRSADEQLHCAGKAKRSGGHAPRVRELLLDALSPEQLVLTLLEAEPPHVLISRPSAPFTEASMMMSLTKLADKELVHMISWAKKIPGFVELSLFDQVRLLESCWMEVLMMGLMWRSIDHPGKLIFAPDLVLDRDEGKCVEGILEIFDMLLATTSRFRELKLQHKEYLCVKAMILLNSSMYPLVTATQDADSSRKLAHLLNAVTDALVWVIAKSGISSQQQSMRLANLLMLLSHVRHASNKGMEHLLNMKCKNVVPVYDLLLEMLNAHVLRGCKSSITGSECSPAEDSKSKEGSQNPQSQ

Row | SMILES | IC50 ([2]; Homo sapiens) [µM] | also measured
1 | CN(C)CCOCC=C1CCC2C3CCc4cc(O)ccc4C3CCC12C.Cl (stereo not drawn) [chloride salt] |  | Activity of salt (data not provided) [1]: found to have activity
2 | C[C@@H]1Cc2cc(O)ccc2[C@H]2CC[C@]3(C)/C(=C/COCCN(C)C)CC[C@H]3[C@H]12 [Compound (1)] | 0.8 | IC50 (ER-α): 0.00156 ± 0.00042 µM; IC50 (ER-β): 0.0867 ± 0.0133 µM
3 | CN(C)CCOCC=C1CCC2C3CCc4cc(O)ccc4C3CCC12C.O=C(O)C=CC(=O)O (stereo not drawn) [fumerate salt] |  | Activity of salt (data not provided) [1]: found to have activity
4 | C[C@]12CC[C@@H]3c4ccc(O)cc4C[C@@H](CCCCCCCCC[S+]([O-])CCCC(F)(F)C(F)(F)F)[C@H]3[C@@H]1CC[C@@H]2O (stereo partly drawn) [ICI-182780, reference compound] | > 20 | 
5 | CC/C(=C(\c1ccc(O)cc1)c1ccc(OCCN(C)C)cc1)c1ccccc1 [OH-Tamoxifen, reference compound] |  | IC50 [2]: > 20 µM
6 | C[C@@H]1Cc2cc(O)ccc2[C@H]2CC[C@]3(C)/C(=C/COCCN4CCCCC4)CC[C@H]3[C@H]12 | 15 | 
7 | C[C@@H]1Cc2cc(O)ccc2[C@H]2CC[C@]3(C)/C(=C/COCCNC4CC4)CC[C@H]3[C@H]12 | 10.2 | 
8 | C[C@@H]1Cc2cc(O)ccc2C2CC[C@]3(C)/C(=C/COCCN4CCCC4)CCC3C21 (stereo partly drawn) | 6.9 | 
9 | O=C(c1ccc(OCCN2CCCCC2)cc1)c1c(-c2ccc(O)cc2)sc2cc(O)ccc12 [Raloxifene, reference compound] | > 20 | 
10 | C[C@@H]1Cc2cc(O)ccc2[C@H]2CC[C@]3(C)/C(=C/COC[C@@H](C)N(C)C)CC[C@H]3[C@H]12 | 9.2 | 
